According to ChEMBL document CHEMBL4364324, “Triazole derivatives as inhibitors of Alzheimer's disease: Current developments and structure-activity relationships” (Eur J Med Chem, 2019):

Experiments:
[1] = target: T1, Beta-secretase 1 (Homo sapiens, UniProt P56817); assay: Inhibition of BACE1 (unknown origin) at 25 uM relative to control
[2] = target: T2, Cholinesterase (Homo sapiens, UniProt P06276); assay: Inhibition of BuChE (unknown origin) by Ellman's method
[3] = target: T3, Acetylcholinesterase (Electrophorus electricus, UniProt O42275); assay: Inhibition of electric eel AChE using acetylthiocholine iodide as substrate after 15 mins by spectrophotometric analysis
T3 sequence (O42275 whole entry): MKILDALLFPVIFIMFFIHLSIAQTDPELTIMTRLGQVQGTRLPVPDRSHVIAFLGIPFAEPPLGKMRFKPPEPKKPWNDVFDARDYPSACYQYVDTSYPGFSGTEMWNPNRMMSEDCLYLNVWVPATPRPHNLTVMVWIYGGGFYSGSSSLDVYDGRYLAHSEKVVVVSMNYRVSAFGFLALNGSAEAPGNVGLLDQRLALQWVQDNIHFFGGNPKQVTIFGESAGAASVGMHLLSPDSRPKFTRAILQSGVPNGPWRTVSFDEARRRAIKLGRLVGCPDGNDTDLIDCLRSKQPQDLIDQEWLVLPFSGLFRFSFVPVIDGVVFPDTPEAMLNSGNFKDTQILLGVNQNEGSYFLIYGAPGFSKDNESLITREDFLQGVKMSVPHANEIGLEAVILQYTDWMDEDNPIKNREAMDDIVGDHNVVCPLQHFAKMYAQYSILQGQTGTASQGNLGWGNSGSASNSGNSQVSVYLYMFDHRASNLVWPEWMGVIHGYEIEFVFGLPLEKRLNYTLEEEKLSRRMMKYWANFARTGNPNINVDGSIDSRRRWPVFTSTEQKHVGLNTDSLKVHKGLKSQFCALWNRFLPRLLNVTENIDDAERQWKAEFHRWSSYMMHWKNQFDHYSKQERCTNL

[4] = tested on: HCT-116; assay: Cytotoxicity against human HCT116 cells after 18 hrs by MTT assay; format: functional, cell-based; conditions: HCT-116, 18 h
[5] = target: T2, Cholinesterase; assay: Inhibition of human BuChE at 100 uM using acetylthiocholine iodide as substrate after 10 secs measured at 30 s intervals for two minutes by Ellman's method relative to control
[6] = target: T1, Beta-secretase 1; assay: Inhibition of BACE1 (unknown origin) expressed in baculovirus-expression system using Rh-EVNLDAEFK-Quencher substrate after 90 mins by FRET assay
[7] = target: T2, Cholinesterase; assay: Inhibition of BuChE (unknown origin) at 25 uM relative to control
[8] = target: T3, Acetylcholinesterase; assay: Inhibition of electric eel AChE using acetylthiocholine iodide as substrate preincubated for 3 mins followed by substrate addition
[9] = target: T2, Cholinesterase
Description: Inhibition of BuChE (unknown origin) using butyrylthiocholine chloride as substrate preincubated for 15 mins followed by substrate addition measured after 30 mins by Ellman's method

[10] = target: T3, Acetylcholinesterase
Description: Inhibition of electric eel AChE using acetylthiocholine iodide as substrate preincubated for 10 mins followed by substrate addition measured after 15 mins by Ellman's method

[11] = target: T2, Cholinesterase; remark: listed apart in the source
[12] = target: Cholinesterase (Equus caballus) (UniProt P81908); assay: Inhibition of equine serum BuChE using butyrylthiocholine iodide as substrate preincubated for 10 mins followed by substrate addition measured after 15 mins by Ellman's method relative to control
Sequence of Cholinesterase (Equus caballus) (P81908 whole entry): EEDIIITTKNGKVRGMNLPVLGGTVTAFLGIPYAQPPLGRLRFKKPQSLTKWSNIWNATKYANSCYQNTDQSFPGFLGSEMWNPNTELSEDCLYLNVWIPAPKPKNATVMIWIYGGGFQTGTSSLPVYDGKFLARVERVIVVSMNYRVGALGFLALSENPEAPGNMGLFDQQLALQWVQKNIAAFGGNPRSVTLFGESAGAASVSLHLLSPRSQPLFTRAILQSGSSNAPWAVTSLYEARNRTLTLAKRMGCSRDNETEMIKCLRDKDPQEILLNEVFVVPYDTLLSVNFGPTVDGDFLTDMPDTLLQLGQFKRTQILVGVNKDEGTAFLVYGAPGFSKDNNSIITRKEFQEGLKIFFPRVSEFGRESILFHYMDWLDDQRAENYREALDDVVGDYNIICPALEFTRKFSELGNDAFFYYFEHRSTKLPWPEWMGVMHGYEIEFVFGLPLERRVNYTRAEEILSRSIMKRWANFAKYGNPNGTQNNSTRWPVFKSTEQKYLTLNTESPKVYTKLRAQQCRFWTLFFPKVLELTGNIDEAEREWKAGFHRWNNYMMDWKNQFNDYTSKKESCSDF

[13] = target: T2, Cholinesterase; assay: Inhibition of BuChE (unknown origin) after 2 mins
[14] = target: T4, Amyloid-beta precursor protein (Homo sapiens, UniProt P05067); assay: Inhibition of amyloid beta (1 to 42) (unknown origin) self aggregation relative to control; conditions: concentration not given here
T4 sequence (P05067 whole entry): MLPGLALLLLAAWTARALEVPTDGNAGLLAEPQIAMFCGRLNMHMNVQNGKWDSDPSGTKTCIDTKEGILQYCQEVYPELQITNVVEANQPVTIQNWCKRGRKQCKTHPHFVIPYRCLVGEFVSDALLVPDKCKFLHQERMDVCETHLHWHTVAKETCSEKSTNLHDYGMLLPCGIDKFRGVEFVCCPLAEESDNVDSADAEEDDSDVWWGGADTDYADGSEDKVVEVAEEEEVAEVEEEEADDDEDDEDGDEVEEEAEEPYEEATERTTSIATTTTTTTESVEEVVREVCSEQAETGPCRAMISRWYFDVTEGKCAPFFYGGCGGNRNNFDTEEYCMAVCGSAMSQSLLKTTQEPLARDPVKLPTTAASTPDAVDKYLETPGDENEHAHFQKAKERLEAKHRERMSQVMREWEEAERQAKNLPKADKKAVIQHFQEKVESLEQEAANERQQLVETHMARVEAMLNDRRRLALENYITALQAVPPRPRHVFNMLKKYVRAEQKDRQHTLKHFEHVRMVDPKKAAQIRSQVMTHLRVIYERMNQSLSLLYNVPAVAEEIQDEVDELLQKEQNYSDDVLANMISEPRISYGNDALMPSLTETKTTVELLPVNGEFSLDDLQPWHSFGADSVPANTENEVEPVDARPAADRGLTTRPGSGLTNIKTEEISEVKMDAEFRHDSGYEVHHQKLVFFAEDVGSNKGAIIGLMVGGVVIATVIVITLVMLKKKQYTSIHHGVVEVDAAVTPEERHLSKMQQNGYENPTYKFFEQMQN

[15] = target: T4, Amyloid-beta precursor protein
[16] = target: Cholinesterase (Equus caballus, UniProt P81908); assay: Inhibition of equine serum BuChE using butyrylthiocholine iodide as substrate preincubated for 3 mins followed by substrate addition
Sequence of Cholinesterase (Equus caballus, UniProt P81908) (P81908 whole entry): as the sequence (P81908 whole entry) above

T2 sequence (P06276 whole entry): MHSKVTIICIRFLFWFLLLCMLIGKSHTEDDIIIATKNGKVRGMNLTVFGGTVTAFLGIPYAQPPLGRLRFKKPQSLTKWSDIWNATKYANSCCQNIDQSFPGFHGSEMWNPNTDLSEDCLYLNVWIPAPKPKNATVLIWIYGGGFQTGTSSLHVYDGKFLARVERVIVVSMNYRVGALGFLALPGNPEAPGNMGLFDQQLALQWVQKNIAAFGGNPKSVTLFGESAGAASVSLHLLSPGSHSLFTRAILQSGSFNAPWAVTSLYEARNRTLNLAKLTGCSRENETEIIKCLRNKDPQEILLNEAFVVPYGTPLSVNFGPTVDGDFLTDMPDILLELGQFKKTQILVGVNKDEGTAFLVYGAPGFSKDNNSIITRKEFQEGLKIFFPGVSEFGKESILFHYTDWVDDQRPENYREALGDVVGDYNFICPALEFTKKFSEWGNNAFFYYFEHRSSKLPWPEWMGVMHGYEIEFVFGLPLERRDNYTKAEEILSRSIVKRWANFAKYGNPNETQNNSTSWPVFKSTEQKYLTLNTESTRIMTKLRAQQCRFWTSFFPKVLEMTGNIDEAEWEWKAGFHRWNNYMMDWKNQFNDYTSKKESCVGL
T1 sequence (P56817 whole entry): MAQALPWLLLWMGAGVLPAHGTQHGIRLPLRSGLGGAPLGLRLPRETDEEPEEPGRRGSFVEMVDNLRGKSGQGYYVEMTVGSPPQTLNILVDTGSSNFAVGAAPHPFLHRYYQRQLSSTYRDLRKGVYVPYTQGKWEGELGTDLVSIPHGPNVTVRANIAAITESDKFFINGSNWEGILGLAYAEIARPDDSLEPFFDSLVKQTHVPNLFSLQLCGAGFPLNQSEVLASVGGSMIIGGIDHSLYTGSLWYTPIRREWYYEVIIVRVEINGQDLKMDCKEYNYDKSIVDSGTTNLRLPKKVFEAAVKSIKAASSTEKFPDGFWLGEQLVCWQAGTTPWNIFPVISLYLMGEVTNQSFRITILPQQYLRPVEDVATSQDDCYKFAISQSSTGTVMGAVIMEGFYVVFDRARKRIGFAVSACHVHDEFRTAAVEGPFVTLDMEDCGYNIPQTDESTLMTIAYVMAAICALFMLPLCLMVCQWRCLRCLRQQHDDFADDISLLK

O=C(/C=C/c1ccc(O)c(O)c1)NCc1cn(C[C@@H]2Cc3c([nH]c4ccccc34)CN2)nn1
inhibition [1]: 40%

Cc1nn(CC(=O)N/N=C/c2cccc(Br)c2)c(=O)n1-c1ccc(C(=O)N/N=C/c2cccc(Br)c2)cc1
IC50 [2]: 0.0937 µM

Cc1nn(CC(=O)N/N=C/c2ccccc2)c(=O)n1-c1ccc(C(=O)N/N=C/c2ccccc2)cc1
IC50 [2]: 0.0702 µM

CCn1c(O)nnc1-c1cn(CC)c2ccc(C)cc2c1=O
IC50 [3]: 1740 µM

O=c1oc2ccccc2c2c1cnn2Cc1cn(-c2c(Cl)cc(Cl)cc2Cl)nn1
IC50 [4]: 6 µM

COc1cccc(Cn2cc(Cn3c4ccccc4c4ccccc43)nn2)c1
IC50 [5]: > 100 µM

O=[N+]([O-])c1ccc(Cn2cc(COc3ccc(/C=N/Nc4nnc(-c5ccccc5)c(-c5ccccc5)n4)cc3)nn2)cc1
IC50 [6]: 11.4 µM

Clc1ccc(Cn2cc(COc3ccc(/C=N/Nc4nnc(-c5ccccc5)c(-c5ccccc5)n4)cc3)nn2)cc1
IC50 [6]: 8.55 µM

Cc1nn(CC(=O)N/N=C/c2ccc(Br)cc2)c(=O)n1-c1ccc(C(=O)N/N=C/c2ccc(Br)cc2)cc1
IC50 [2]: 0.125 µM

Fc1ccccc1Cn1cc(Cn2c3ccccc3c3ccccc32)nn1
IC50 [5]: > 100 µM

Clc1ccc(-c2cn(C[C@@H]3Cc4c([nH]c5ccccc45)CN3)nn2)cc1Cl
inhibition [7]: 61.5% | inhibition [1]: 61.5%

Cc1nn(CC(=O)N/N=C/c2ccc(Cl)cc2)c(=O)n1-c1ccc(C(=O)N/N=C/c2ccc(Cl)cc2)cc1
IC50 [2]: 0.0557 µM

O=C(NC1CCN(Cc2ccccc2)CC1)c1cc2ccc(OCc3cn(Cc4ccccc4Cl)nn3)cc2oc1=O
IC50 [8]: 3.29 to 29.4 µM

CN(C)CCCC1(c2ccc(F)cc2)CCc2cc(-c3nnc(-c4cccc(Cl)c4)[nH]3)ccc21 (stereo unspecified)
IC50 [9]: 4.52 to 9.52 µM

Cc1nn(CC(=O)N/N=C/c2ccc(Br)cc2O)c(=O)n1-c1ccc(C(=O)N/N=C/c2ccc(Br)cc2O)cc1
IC50 [2]: 0.0486 µM

COc1cc(-c2nnc(-c3ccc4c(c3)CCC4(CCCN(C)C)c3ccc(F)cc3)[nH]2)ccc1O (stereo unspecified)
IC50 [9]: 4.52 to 9.52 µM

O=C(NC1CCN(Cc2ccccc2)CC1)c1cc2ccc(OCc3cn(Cc4ccc(F)cc4)nn3)cc2oc1=O
IC50 [8]: 3.29 to 29.4 µM

CN(C)CCCC1(c2ccc(F)cc2)CCc2cc(-c3nnc(-c4cccc(F)c4)[nH]3)ccc21 (stereo unspecified)
IC50 [9]: 4.52 to 9.52 µM

CN(C)CCCC1(c2ccc(F)cc2)CCc2cc(-c3nnc(-c4ccccc4I)[nH]3)ccc21 (stereo unspecified)
IC50 [9]: 4.52 to 9.52 µM

COc1ccc(/C=N/NC(=O)Cn2nc(C)n(-c3ccc(C(=O)N/N=C/c4ccc(OC)cc4)cc3)c2=O)cc1
IC50 [2]: 0.0486 to 0.125 µM

CN(C)C(=O)Oc1cccc([N+](C)(C)C)c1 [NEOSTIGMINE]
IC50 [10]: 16.3 µM

CC1(C)Oc2cc3oc(=O)ccc3cc2CC1OC(=O)n1cc(CNC(=O)CCCCC2CCSS2)nn1 (stereo unspecified)
IC50 [11]: 5890 µM

CN(C)CCCC1(c2ccc(F)cc2)CCc2cc(-c3nnc(-c4ccc(F)cc4)[nH]3)ccc21 (stereo unspecified)
IC50 [9]: 5.31 µM

Cc1ccccc1Cn1cc(Cn2c3ccccc3c3ccccc32)nn1
IC50 [5]: > 100 µM

O=C(CCCc1ccc(O)cc1)NCc1cn(C[C@@H]2Cc3c([nH]c4ccccc34)CN2)nn1
inhibition [1]: 33%

CN(C)CCCC1(c2ccc(F)cc2)CCc2cc(-c3nnc(-c4ccccc4F)[nH]3)ccc21 (stereo unspecified)
IC50 [9]: 4.52 µM

Cc1ccc(OCc2nn3c(-c4cccc(Br)c4)nnc3s2)cc1
inhibition [12]: 50% | IC50 [10]: 0.117 µM

COc1ccc2c(c1)C/C(=C\c1ccc(-c3cn(-c4ccnc5ccccc45)nn3)cc1)C2=O
inhibition [5]: 0.2%

O=C(NC1CCN(Cc2ccccc2)CC1)c1cc2ccc(OCc3cn(Cc4cccc(Cl)c4Cl)nn3)cc2oc1=O
IC50 [8]: 3.29 to 29.4 µM

Cc1cc(=O)oc2cc(OCCCCCn3cc(CNc4c5c(nc6cc(Cl)ccc46)CCCC5)nn3)ccc12
IC50 [13]: 0.027 µM

Cc1cccc(Cn2cc(Cn3c4ccccc4c4ccccc43)nn2)c1
IC50 [5]: > 100 µM

O=c1ccc2ccc(OCCCCCCCn3cc(CNc4c5c(nc6ccccc46)CCCC5)nn3)cc2o1
IC50 [13]: 0.006 µM

COc1ccc2c(c1)C(=O)/C(=C/c1ccc(-c3cn(-c4ccnc5ccccc45)nn3)cc1)C2
inhibition [5]: 0%

Oc1ccc2cc(-c3cn(C[C@@H]4Cc5c([nH]c6ccccc56)CN4)nn3)ccc2c1
inhibition [1]: 30.4%

COc1cc(/C=C/C(=O)CC(=O)/C=C/c2ccc(O)c(OC)c2)ccc1O
inhibition [14]: 95.1%

Fc1cccc(Cn2cc(Cn3c4ccccc4c4ccccc43)nn2)c1
IC50 [5]: > 100 µM

CC(C)(C)c1ccc(-c2cn(C[C@@H]3Cc4c([nH]c5ccccc45)CN3)nn2)cc1
inhibition [1]: 18.9%

CCOC(=O)C(Cc1cn(-c2ccccc2C(F)(F)F)nn1)(Cc1cn(-c2ccccc2C(F)(F)F)nn1)NC(C)=O
inhibition [14]: 96.9% | IC50 [15]: 8.06 µM

CCn1cc(-c2nnc(O)n2Cc2ccccc2)c(=O)c2cc(Cl)c(F)cc21
IC50 [3]: 1200 µM

Cc1ccc(Cn2cc(COc3ccc4cc(C(=O)NC5CCN(Cc6ccccc6)CC5)c(=O)oc4c3)nn2)cc1C
IC50 [8]: 1.8 µM | IC50 [16]: > 100 µM

O=C(NC1CCN(Cc2ccccc2)CC1)c1cc2ccc(OCc3cn(Cc4ccc(Cl)c(Cl)c4)nn3)cc2oc1=O
IC50 [8]: 3.29 to 29.4 µM

O=C(NC1CCN(Cc2ccccc2)CC1)c1cc2ccc(OCc3cn(Cc4ccccc4Br)nn3)cc2oc1=O
IC50 [8]: 3.29 to 29.4 µM
